We go through one molecule from patent US20230241126A1 (priority 2022, published 2023).

Bounds are passed on as bounds.

The test system of one series is SARS-CoV-2. The format is cell-based. To be noted: 1-hour contact time at 22 ± 2° C.; versus virus control titer 5.0.

For the molecule `CCO` [Ethanol], the “Toxicity (highest dilution of the endpoint titer where full (80-100%) cytotoxicity was observed)” value in the series with Vero 76 cells is listed as “None”. The “LRV (log reduction value)” value in the series with SARS-CoV-2 was above 4.3.
